In patent US5304474A, “Hydrophobic peptide esters and amides” (Board of Regents, The University of Texas System, priority 1991, dated 1994):
Peptide text beside a SMILES is read from it.

Tested on: natural killer cells (NK)
Assay: NK function: lysis of K562 target cells (51Cr release) after preincubation of lymphocytes with compound
Conditions: for prevention of Leu-OMe ablation of NK activity / permanent effect on NK function: PBM; for prevention of Leu-OMe ablation of NK activity: 5 mM Leu-OMe with lysosomal inhibitor (FIG. 1); for permanent effect on NK function: agent alone, washed, 18 hours culture, E:T 40:1 (FIG. 1); for NK toxicity / effect on NK function, in words: lymphocytes exposed 15 minutes at room temperature (FIG. 4, FIG. 5); for NK Function % Specific Lysis K562: Nil 40.8 (Table 16); for effect of unesterified dipeptides on NK cell survival or lytic activity: up to 5×10^-3 M
Description: PBM were separated from heparinized venous blood of healthy donors by centrifugation over sodium diatrizoate-Ficoll gradients (Isolymph, Gallard-Schlesinger Chemical Mfg. Corp., Carle Place, N.Y.).
All cell exposures to the amino acids, dipeptides or their methyl esters were carried out by suspending cells in Dulbecco's phosphate buffered saline (PBS) and incubating them at room temperature with the reagent at the indicated concentration and time interval.
Percent of control cytotoxicity was calculated using the formula: [formula]

Compound | NK toxicity / effect on NK function, in words | further results
Cl.N [NH4 Cl, reference compound] |  | prevention of Leu-OMe ablation of NK activity: largely prevented; permanent effect on NK function: neither chloroquine, NH4 Cl, nor Ile-OMe had any substantial permanent effect on NK function
COC(=O)[C@H](CC(C)C)NC(=O)[C@@H](N)Cc1ccccc1 [Phe-Leu-OMe] (H-Phe-Leu-OMe) | produced concentration-dependent ablation of NK function at concentrations comparable to those at which Leu-Leu-OMe was active | 
COC(=O)[C@H](CCCNC(=N)N)NC(=O)[C@@H](N)CC(C)C [Leu-Arg-OMe] | no observed NK inhibitory effects | 
NCC(=O)N[C@@H](Cc1ccccc1)C(N)=O [Gly-Phe-NH2] (H-Gly-Phe-NH2) | has no apparent NK toxic effects | NK Function % Specific Lysis K562 (250 micro-M): 43.9%
COC(=O)[C@H](CC(C)C)NC(=O)CN [Gly-Leu-OMe] | greatly reduced NK toxicity | 
CC(C)C[C@H](NC(=O)[C@@H](N)Cc1ccccc1)C(=O)O [Phe-Leu, L-phenylalanyl L-leucine, reference compound] (H-Phe-Leu-OH) |  | effect of unesterified dipeptides on NK cell survival or lytic activity: had no effect on NK cell survival or lytic activity
CC(C)[C@H](N)C(=O)N[C@@H](Cc1ccccc1)C(=O)O [Val-Phe, L-valyl L-phenylalanine, reference compound] (H-Val-Phe-OH) |  | effect of unesterified dipeptides on NK cell survival or lytic activity: had no effect on NK cell survival or lytic activity
CC[C@H](C)[C@H](N)C(=O)OC [Ile-OMe, reference compound] |  | prevention of Leu-OMe ablation of NK activity: largely prevented; permanent effect on NK function: neither chloroquine, NH4 Cl, nor Ile-OMe had any substantial permanent effect on NK function
CC(C)C[C@H](N)C(=O)N[C@@H](Cc1ccccc1)C(=O)O [Leu-Phe, L-leucyl L-phenylalanine, reference compound] (H-Leu-Phe-OH) |  | effect of unesterified dipeptides on NK cell survival or lytic activity: had no effect on NK cell survival or lytic activity
CC(C)C[C@H](NC(=O)[C@@H](N)C(C)C)C(=O)O [Val-Leu, L-valyl L-leucine, reference compound] (H-Val-Leu-OH) |  | effect of unesterified dipeptides on NK cell survival or lytic activity: had no effect on NK cell survival or lytic activity
CC(C)C[C@H](N)C(=O)O [Leucine, L-leucine, reference compound] | had no irreversible effect on NK function | 
COC(=O)[C@H](CC(C)C)NC(=O)[C@@H](N)C(C)C [Val-Leu-OMe] (H-Val-Leu-OMe) | produced concentration-dependent ablation of NK function at concentrations comparable to those at which Leu-Leu-OMe was active | 
COC(=O)CNC(=O)[C@@H](N)CC(C)C [Leu-Gly-OMe] (H-Leu-Gly-OMe) | greatly reduced NK toxicity | 
COC(=O)[C@@H](NC(=O)[C@@H](N)Cc1ccccc1)C(C)C [Phe-Val-OMe] (H-Phe-Val-OMe) | markedly less active than Val-Phe-OMe | 
COC(=O)[C@H](CC(C)C)NC(=O)[C@@H](N)CCCCN [Lys-Leu-OMe] (H-Lys-Leu-OMe) | no observed NK inhibitory effects | 
zinc [reference compound] |  | effect on Leu-Leu-OMe mediated NK toxicity (added with Leu-Leu-OMe): appeared to inhibit this Leu-Leu-OMe toxicity
COC(=O)[C@H](Cc1ccccc1)NC(=O)CN [Gly-Phe-OMe] (H-Gly-Phe-OMe) | a much less potent NK toxin than is Leu-Leu-OMe | NK Function % Specific Lysis K562 (250 micro-M): 34.5%; NK Function % Specific Lysis K562 (500 micro-M): 10.1%
COC(=O)[C@H](CC(C)C)NC(=O)[C@H](C)N [Ala-Leu-OMe] (H-Ala-Leu-OMe) | had no NK inhibitory effects | 
COC(=O)[C@@H](NC(=O)[C@@H](N)C(C)C)C(C)C [Val-Val-OMe] (H-Val-Val-OMe) | less active than either Leu-Val-OMe or Val-Leu-OMe | 
